Activity calls are given as the source filed them. The calls are words filed in the database; no cut-off is given here.

Assay [1] has as its target T1, Cholinesterase (Equus caballus, UniProt P81908).
Description: Inhibition of equine serum BChE using butyrylthiocholine iodide as substrate preincubated with enzyme for 5 mins prior to substrate addition measured after 5 mins by Ellman's method
Assay [2] has as its target Acetylcholinesterase (Electrophorus electricus) (UniProt O42275). Description: Inhibition of electric eel AChE using acetylthiocholine iodide as substrate at 10 uM preincubated with enzyme for 5 mins prior to substrate addition measured after 5 mins by Ellman's method relative to control. (In Ellman's method for cholinesterases, released thiocholine reacts with DTNB.)

Assay [3] deals with Cholinesterase (Equus caballus) (UniProt P81908). As to the kind of experiment: Inhibition of equine serum BChE using butyrylthiocholine iodide as substrate at 10 uM preincubated with enzyme for 5 mins prior to substrate addition measured after 5 mins by Ellman's method relative to control.
Assay [4] concerns the target T2, Histamine H3 receptor (Homo sapiens, UniProt Q9Y5N1). Description: Displacement of [3H]-N-alpha-methylhistamine from human histamine H3 receptor stably expressed in HEK293 cell membrane after 90 mins.
For assay [5], the target named is T2, Histamine H3 receptor. As to the kind of experiment: Displacement of [125I]Iodoproxyfan from human histamine H3 receptor stably expressed in CHOK1 cells after 60 mins. The assay is classed as cell-based.
The target in assay [6] is T3, Acetylcholinesterase (Electrophorus electricus, UniProt O42275). As to the kind of experiment: Inhibition of electric eel AChE using acetylthiocholine iodide as substrate preincubated with enzyme for 5 mins prior to substrate addition measured after 5 mins by Ellman's method.
Assay [7] has as its target T1, Cholinesterase. As to the kind of experiment: Non-competitive inhibition of equine serum BChE using butyrylthiocholine iodide as substrate by Lineweaver-Burk plot analysis.
Assay [8] addresses T3, Acetylcholinesterase. As to the kind of experiment: Non-competitive inhibition of electric eel AChE using acetylthiocholine iodide as substrate by Lineweaver-Burk plot analysis.
Assay [9] concerns the target T4, Acetylcholinesterase (Homo sapiens, UniProt P22303). Description: Inhibition of recombinant human AChE using acetylthiocholine iodide as substrate preincubated with enzyme for 5 mins prior to substrate addition measured after 5 mins by Ellman's method.
Assay [10] addresses T2, Histamine H3 receptor. Description: Displacement of [125I]Iodoproxyfan from human histamine H3 receptor stably expressed in HEK293 cells after 60 mins. Type of assay: cell-based.
Assay [11] deals with T4, Acetylcholinesterase. As to the kind of experiment: Non-competitive inhibition of recombinant human AChE using acetylthiocholine iodide as substrate by Lineweaver-Burk plot analysis.
For assay [12], the target named is T4, Acetylcholinesterase. As to the kind of experiment: Non-competitive inhibition of recombinant human AChE using acetylthiocholine iodide as substrate by Cornish-Bowden plot analysis.

T3 sequence (O42275 whole entry): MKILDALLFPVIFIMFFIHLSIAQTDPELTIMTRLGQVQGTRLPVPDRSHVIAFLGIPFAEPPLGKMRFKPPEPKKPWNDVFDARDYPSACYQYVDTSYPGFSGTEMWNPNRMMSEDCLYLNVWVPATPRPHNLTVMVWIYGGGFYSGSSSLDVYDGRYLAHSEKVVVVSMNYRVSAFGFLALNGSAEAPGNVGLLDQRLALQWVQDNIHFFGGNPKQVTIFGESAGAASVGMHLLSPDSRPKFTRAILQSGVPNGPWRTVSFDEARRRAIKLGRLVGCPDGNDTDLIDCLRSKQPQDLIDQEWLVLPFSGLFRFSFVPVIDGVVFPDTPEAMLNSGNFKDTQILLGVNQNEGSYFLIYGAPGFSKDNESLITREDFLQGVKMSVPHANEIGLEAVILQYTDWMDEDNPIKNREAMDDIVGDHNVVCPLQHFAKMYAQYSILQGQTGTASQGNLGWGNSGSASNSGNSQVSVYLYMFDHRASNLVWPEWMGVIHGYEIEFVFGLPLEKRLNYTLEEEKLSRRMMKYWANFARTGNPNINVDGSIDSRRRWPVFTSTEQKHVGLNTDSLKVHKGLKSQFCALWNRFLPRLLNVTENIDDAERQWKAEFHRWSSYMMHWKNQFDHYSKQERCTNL
Chain of Acetylcholinesterase (Electrophorus electricus) (O42275 24-633 limits assumed): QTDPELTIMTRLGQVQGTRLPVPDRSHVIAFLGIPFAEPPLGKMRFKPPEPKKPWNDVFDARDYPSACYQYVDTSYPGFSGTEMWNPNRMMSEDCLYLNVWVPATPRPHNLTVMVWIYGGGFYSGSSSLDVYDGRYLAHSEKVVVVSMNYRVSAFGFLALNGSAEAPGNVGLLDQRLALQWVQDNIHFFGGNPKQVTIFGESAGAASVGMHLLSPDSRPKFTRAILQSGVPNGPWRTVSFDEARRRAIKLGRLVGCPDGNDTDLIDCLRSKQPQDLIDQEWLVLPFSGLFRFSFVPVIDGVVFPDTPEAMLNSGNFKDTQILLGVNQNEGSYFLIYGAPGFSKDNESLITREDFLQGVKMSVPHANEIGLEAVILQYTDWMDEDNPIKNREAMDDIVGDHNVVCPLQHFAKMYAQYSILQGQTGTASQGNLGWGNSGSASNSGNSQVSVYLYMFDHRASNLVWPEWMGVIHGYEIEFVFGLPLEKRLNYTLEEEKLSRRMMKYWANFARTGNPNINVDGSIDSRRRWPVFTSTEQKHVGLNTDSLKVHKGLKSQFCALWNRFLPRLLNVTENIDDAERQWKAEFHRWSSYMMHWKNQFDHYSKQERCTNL
T1 sequence (P81908 whole entry): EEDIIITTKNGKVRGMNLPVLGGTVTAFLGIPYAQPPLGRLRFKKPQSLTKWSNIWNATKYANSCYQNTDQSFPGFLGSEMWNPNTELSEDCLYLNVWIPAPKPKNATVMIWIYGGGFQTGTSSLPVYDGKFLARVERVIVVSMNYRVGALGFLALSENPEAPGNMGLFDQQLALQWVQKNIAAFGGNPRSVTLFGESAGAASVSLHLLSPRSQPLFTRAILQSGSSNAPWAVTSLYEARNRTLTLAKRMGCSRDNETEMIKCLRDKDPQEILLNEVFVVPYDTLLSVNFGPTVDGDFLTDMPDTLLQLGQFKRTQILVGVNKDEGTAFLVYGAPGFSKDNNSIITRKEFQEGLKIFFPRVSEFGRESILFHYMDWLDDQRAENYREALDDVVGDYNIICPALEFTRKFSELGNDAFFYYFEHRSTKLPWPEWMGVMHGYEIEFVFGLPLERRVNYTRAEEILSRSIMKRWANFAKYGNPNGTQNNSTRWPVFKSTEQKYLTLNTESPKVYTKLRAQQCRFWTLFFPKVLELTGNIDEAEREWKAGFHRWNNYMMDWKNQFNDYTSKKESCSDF
Chain of Cholinesterase (Equus caballus) (P81908 whole entry): as above
T2 sequence (Q9Y5N1 whole entry): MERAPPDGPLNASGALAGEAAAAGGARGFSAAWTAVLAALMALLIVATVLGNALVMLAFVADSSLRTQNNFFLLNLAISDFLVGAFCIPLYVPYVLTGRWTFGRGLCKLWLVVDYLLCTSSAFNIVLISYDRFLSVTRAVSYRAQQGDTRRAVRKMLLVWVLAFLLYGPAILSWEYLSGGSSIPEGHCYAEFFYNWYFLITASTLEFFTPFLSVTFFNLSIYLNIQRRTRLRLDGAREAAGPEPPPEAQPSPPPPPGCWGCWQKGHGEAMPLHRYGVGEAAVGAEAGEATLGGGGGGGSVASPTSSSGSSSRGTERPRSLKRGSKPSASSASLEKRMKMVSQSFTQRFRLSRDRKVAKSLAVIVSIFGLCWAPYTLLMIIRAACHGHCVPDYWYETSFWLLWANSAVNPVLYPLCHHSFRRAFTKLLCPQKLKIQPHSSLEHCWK
T4 sequence (P22303 whole entry): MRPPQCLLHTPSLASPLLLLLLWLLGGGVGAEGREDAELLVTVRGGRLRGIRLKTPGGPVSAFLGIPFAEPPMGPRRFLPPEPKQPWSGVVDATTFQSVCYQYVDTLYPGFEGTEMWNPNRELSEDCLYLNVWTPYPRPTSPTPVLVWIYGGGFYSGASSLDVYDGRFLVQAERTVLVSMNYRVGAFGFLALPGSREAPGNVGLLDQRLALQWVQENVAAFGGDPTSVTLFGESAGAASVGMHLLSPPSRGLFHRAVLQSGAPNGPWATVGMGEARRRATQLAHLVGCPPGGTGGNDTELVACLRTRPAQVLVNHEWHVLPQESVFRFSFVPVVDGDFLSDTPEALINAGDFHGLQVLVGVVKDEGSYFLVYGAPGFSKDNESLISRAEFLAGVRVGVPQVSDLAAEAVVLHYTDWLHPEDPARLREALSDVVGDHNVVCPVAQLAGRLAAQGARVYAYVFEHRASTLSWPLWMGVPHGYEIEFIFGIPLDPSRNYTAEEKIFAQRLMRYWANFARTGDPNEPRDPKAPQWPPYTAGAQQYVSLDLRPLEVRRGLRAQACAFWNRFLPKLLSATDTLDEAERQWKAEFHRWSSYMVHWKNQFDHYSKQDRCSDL

`CCc1ccc(OCCCCCCN2CCCCCC2)cc1`: the midpoint of inhibition at Cholinesterase [1], the IC50, lay at 1900 nM. In addition, the inhibition (commonly how much of the control response was suppressed) stood at 30.8% in [2] and 85.7% in assay [3]. In addition, at Histamine H3 receptor [4], the Ki (usually the equilibrium dissociation constant of an inhibitor or competing ligand from its target) amounted to 84.3 nM.

With `CCc1ccc(OCCCCCCN2CCC(C)CC2)cc1`, on Cholinesterase [1], the IC50 (commonly the concentration that inhibits the measured activity by half) was determined as 3920 nM. Also, the inhibition stood at 23.5% in assay [2] and 75.1% in assay [3]. This compound also registered an inhibitory constant (Ki) on Histamine H3 receptor [4] of 181 nM.

Consider `c1ccc(CCCOCCCN2CCN(Cc3ccccc3)CC2)cc1`, for which the inhibition in [2] came to 18.8%; in assay [3], 33.9%. Also, at Histamine H3 receptor [5], the Ki is above 1000 nM.

As to `O=C(c1ccccc1Cl)N1CCN(CCCOCC2CCC2)CC1`, the inhibition in [2] and in assay [3] was 0% each time. For the same compound, the Ki on Histamine H3 receptor [5] was above 1000 nM.

On to `CC1CCCN(CCCCCCOc2ccc3c(c2)C(=O)CC(c2ccccc2)O3)C1` (centres undefined), for which the IC50 at Cholinesterase [1] was 1900 nM; at Acetylcholinesterase [6] it was 800 nM. In addition, the figures for the inhibition in [2] and in assay [3] were 91.5% and 90.3%, respectively. The affinity at Histamine H3 receptor [4], expressed as Ki, was 523 nM.

`O=C(c1ccc(OCCCN2CCN(C/C=C/c3ccccc3)CC2)cc1)C1CC1`: the inhibition in assay [2] was found to be 8.85%; in [3] it was 38.4%. This compound had a Ki at Histamine H3 receptor [5] of 83 nM.

On to `Cc1ccc2oc(-c3ccc(OCCCCCCN4CCCCCC4)cc3)cc(=O)c2c1`, for which the Ki at Cholinesterase [7] was found to be 281 nM; at Acetylcholinesterase [8], 176 nM; at Histamine H3 receptor [4], 160 nM. Besides, the figures for the half-inhibitory concentration (IC50) against Cholinesterase [1], at Acetylcholinesterase [9] and on Acetylcholinesterase [6] were 440 nM, 480 nM and 460 nM, respectively. For the same compound, the inhibition in assay [2] turned out to be 95.9%; in [3] it was 99.5%.

Take `O=C(c1ccc(OCCCN2CCN(c3ccccc3)CC2)cc1)C1CC1`: the inhibition in [2] was found to be 7.58%; in [3] it was 11.2%. This compound had an inhibition constant Ki at Histamine H3 receptor [10] of 111 nM.

On to `C(=C\c1ccccc1)/CN1CCN(CCCOCCCc2ccccc2)CC1`, for which the values for the inhibition in assay [2] and in assay [3] were 0% and 37.8%, respectively. Further, affinity on Histamine H3 receptor [5] was put at a Ki of 690 nM.

For `Cc1ccc2oc(-c3ccc(OCCCCCCN4CCCC(C)C4)cc3)cc(=O)c2c1` (centres undefined), the figures for the IC50 against Cholinesterase [1] and against Acetylcholinesterase [6] were 1090 nM and 800 nM, respectively. Moreover, the inhibition in assay [2] is 94%; in [3], 99.4%. Besides, at Histamine H3 receptor [4], the inhibition constant (Ki) is 60 nM.

As to `CCOc1ccccc1N1CCN(CCCOCCCc2ccccc2)CC1`, the inhibition in assay [2] stood at 3.36%; in [3], 46%. On Histamine H3 receptor [5], this compound showed an inhibition constant Ki above 1000 nM.

Turning to `Cc1ccc2oc(-c3ccc(OCCCCCCN4CCCCC4)cc3)cc(=O)c2c1`, the Ki at Acetylcholinesterase [11] amounted to 129 nM; at Histamine H3 receptor [4], 228 nM. The figures for the IC50 at Cholinesterase [1], on Acetylcholinesterase [9] and on Acetylcholinesterase [6] were 760 nM, 360 nM and 500 nM, respectively. For the same compound, the inhibition in assay [2] worked out at 95.6%; in assay [3], 99.6%. In addition, at Acetylcholinesterase [12], the inhibition entry is “Active”.

With `Clc1ccc(CCCOCCCN2CCCCC2)cc1`, the inhibition in [2] turned out to be 3.04%; in [3], 55.7%.

The record behind these values is ChEMBL document CHEMBL4373738, “Search for new multi-target compounds against Alzheimer's disease among histamine H3 receptor ligands” (Eur J Med Chem, 2020).
